In US20180140602A1, “COMBINATION OF CHIMERIC ANTIGEN RECEPTOR THERAPY AND AMINO PYRIMIDINE DERIVATIVES” (Novartis AG, priority 2015, published 2018):

Biological target: T1, BTK (Homo sapiens, UniProt Q06187)
T1 construct: Whole blood was collected with written consent from healthy volunteers by venipuncture into sodium heparin vials; endogenous in cells; host or cells: B cells in heparinised whole blood of healthy human volunteers
Assay: Inhibition of BTK activity in blood (anti-IgM/IL-4 B cell activation, CD69);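 note: heparinized blood from healthy donors, read by flow cytometry, with inhibition derived from the percentage of CD69-positive cells within the CD19-positive lymphocyte gate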
Type: cell-based
Settings: human whole blood, anti-IgM/IL-4, CD69 on CD19+ cells, 20 hours

T1 sequence (Q06187 whole entry): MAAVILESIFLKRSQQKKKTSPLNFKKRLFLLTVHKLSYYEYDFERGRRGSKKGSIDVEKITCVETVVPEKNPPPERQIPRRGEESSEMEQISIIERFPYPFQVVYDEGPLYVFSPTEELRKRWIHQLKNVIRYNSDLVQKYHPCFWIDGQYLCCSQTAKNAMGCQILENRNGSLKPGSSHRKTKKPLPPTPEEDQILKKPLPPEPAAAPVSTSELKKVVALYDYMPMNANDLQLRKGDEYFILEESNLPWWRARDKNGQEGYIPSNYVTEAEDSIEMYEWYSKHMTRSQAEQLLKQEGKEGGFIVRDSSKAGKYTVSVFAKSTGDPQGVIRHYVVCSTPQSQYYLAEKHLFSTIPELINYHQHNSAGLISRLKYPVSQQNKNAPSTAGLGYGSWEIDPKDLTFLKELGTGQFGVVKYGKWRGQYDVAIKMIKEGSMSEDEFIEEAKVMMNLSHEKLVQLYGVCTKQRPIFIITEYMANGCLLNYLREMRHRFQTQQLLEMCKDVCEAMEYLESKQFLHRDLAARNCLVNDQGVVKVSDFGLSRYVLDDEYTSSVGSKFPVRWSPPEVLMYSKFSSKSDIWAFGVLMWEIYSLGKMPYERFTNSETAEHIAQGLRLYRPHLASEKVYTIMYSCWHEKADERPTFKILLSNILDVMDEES

Structure (SMILES) | IC50 [nM]
C/C=C/C(=O)N1CC(Oc2c(N)ncnc2-c2cc(F)cc(NC(=O)c3ccc(C4CC4)cc3F)c2C)C1 [Example 2, (E)-N-(3-(6-Amino-5-((1-(but-2-enoyl)azetidin-3-yl)oxy)pyrimidin-4-yl)-5-fluoro-2-methylphenyl)-4-cyclopropyl-2-fluorobenzamide] | 1110
C#CC(=O)N1CC(Oc2c(N)ncnc2-c2cc(F)cc(NC(=O)c3ccc(C4CC4)cc3F)c2C)C1 [Example 3, N-(3-(6-Amino-5-((1-propioloylazetidin-3-yl)oxy)pyrimidin-4-yl)-5-fluoro-2-methylphenyl)-4-cyclopropyl-2-fluorobenzamide] | 124
CC#CC(=O)N1CC(Oc2c(N)ncnc2-c2cc(F)cc(NC(=O)c3ccc(C4CC4)cc3F)c2C)C1 [Example 4, N-(3-(6-Amino-5-((1-(but-2-ynoyl)azetidin-3-yl)oxy)pyrimidin-4-yl)-5-fluoro-2-methylphenyl)-4-cyclopropyl-2-fluorobenzamide] | 376
COC/C=C/C(=O)N(C)CCOc1c(N)ncnc1-c1cc(F)cc(NC(=O)c2ccc(C3CC3)cc2F)c1C [Example 9, (E)-N-(3-(6-Amino-5-(2-(4-methoxy-N-methylbut-2-enamido)ethoxy)pyrimidin-4-yl)-5-fluoro-2-methylphenyl)-4-cyclopropyl-2-fluorobenzamide] | 240
Cc1c(NC(=O)c2ccc(C3CC3)cc2F)cc(F)cc1-c1ncnc(N)c1OCCN(C)C(=O)C1CO1 (stereo not shown) [Example 11, N-(2-((4-Amino-6-(3-(4-cyclopropyl-2-fluorobenzamido)-5-fluoro-2-methylphenyl)pyrimidin-5-yl)oxy)ethyl)-N-methyloxirane-2-carboxamide] | 323
C=CC(=O)N(C)CCOc1c(N)ncnc1-c1cccc(-n2ccc3cc(C4CC4)cc(F)c3c2=O)c1 [Example 12, N-(2-((4-Amino-6-(3-(6-cyclopropyl-8-fluoro-1-oxoisoquinolin-2(1H)-yl)phenyl)pyrimidin-5-yl)oxy)ethyl)-N-methylacrylamide] | 459
C=CC(=O)N(CCF)CCOc1c(N)ncnc1-c1cc(F)cc(NC(=O)c2ccc(C3CC3)cc2F)c1C [Example 15, N-(3-(6-Amino-5-(2-(N-(2-fluoroethyl)acrylamido)ethoxy)pyrimidin-4-yl)-5-fluoro-2-methylphenyl)-4-cyclopropyl-2-fluorobenzamide] | 29
C=CC(=O)NC1(COc2c(N)ncnc2-c2cc(F)cc(NC(=O)c3ccc(C4CC4)cc3F)c2C)CC1 [Example 16, N-(3-(5-((1-Acrylamidocyclopropyl)methoxy)-6-aminopyrimidin-4-yl)-5-fluoro-2-methylphenyl)-4-cyclopropyl-2-fluorobenzamide] | 558
C=CC(=O)N[C@@H](C)COc1c(N)ncnc1-c1cc(F)cc(NC(=O)c2ccc(C3CC3)cc2F)c1C [Example 17, (S)—N-(3-(5-(2-Acrylamidopropoxy)-6-aminopyrimidin-4-yl)-5-fluoro-2-methylphenyl)-4-cyclopropyl-2-fluorobenzamide] | 246
CC#CC(=O)N[C@@H](C)COc1c(N)ncnc1-c1cc(F)cc(NC(=O)c2ccc(C3CC3)cc2F)c1C [Example 18] | 419
C=CC(=O)N(C)[C@@H](C)COc1c(N)ncnc1-c1cc(F)cc(NC(=O)c2ccc(C3CC3)cc2F)c1C [Example 19, (S)—N-(3-(6-Amino-5-(2-(N-methylacrylamido)propoxy)pyrimidin-4-yl)-5-fluoro-2-methylphenyl)-4-cyclopropyl-2-fluorobenzamide] | 136
CC#CC(=O)N(C)[C@@H](C)COc1c(N)ncnc1-c1cc(F)cc(NC(=O)c2ccc(C3CC3)cc2F)c1C [Example 20] | 330
CC#CC(=O)N1CCC[C@H]1COc1c(N)ncnc1-c1cc(F)cc(NC(=O)c2ccc(C3CC3)cc2F)c1C [Example 23] | 57
C=CC(=O)N1CCC[C@H]1COc1c(N)ncnc1-c1cc(F)cc(N2CCc3cc(C4CC4)ccc3C2=O)c1CO [Example 24, (S)-2-(3-(5-((1-Acryloylpyrrolidin-2-yl)methoxy)-6-aminopyrimidin-4-yl)-5-fluoro-2-(hydroxymethyl)phenyl)-6-cyclopropyl-3,4-dihydroisoquinolin-1(2H)-one] | 32
C=CC(=O)N(C)CCOc1c(N)ncnc1-c1cc(F)cc(N2CCc3cc(C4CC4)ccc3C2=O)c1CO [Example 25, N-(2-((4-Amino-6-(3-(6-cyclopropyl-1-oxo-3,4-dihydroisoquinolin-2(1H)-yl)-5-fluoro-2-(hydroxymethyl)phenyl)pyrimidin-5-yl)oxy)ethyl)-N-methylacrylamide] | 65
C=CC(=O)N1C[C@H](OC)C[C@H]1COc1c(N)ncnc1-c1cc(F)cc(NC(=O)c2ccc(C3CC3)cc2F)c1C [Example 26, N-(3-(5-(((2S,4R)-1-Acryloyl-4-methoxypyrrolidin-2-yl)methoxy)-6-aminopyrimidin-4-yl)-5-fluoro-2-methylphenyl)-4-cyclopropyl-2-fluorobenzamide] | 51
CC#CC(=O)N1C[C@H](OC)C[C@H]1COc1c(N)ncnc1-c1cc(F)cc(NC(=O)c2ccc(C3CC3)cc2F)c1C [Example 27, N-(3-(6-Amino-5-(((2S,4R)-1-(but-2-ynoyl)-4-methoxypyrrolidin-2-yl)methoxy)pyrimidin-4-yl)-5-fluoro-2-methylphenyl)-4-cyclopropyl-2-fluorobenzamide] | 76
C=CC(=O)N1C[C@H](OC)C[C@H]1COc1c(N)ncnc1-c1cc(F)cc(N2CCc3cc(C4CC4)ccc3C2=O)c1CO [Example 28, 2-(3-(5-(((2S,4R)-1-Acryloyl-4-methoxypyrrolidin-2-yl)methoxy)-6-aminopyrimidin-4-yl)-5-fluoro-2-(hydroxymethyl)phenyl)-6-cyclopropyl-3,4-dihydroisoquinolin-1(2H)-one] | 33
C=CC(=O)N1C[C@@H](OC)C[C@H]1COc1c(N)ncnc1-c1cc(F)cc(NC(=O)c2ccc(C3CC3)cc2F)c1C [Example 29, N-(3-(5-(((2S,4S)-1-Acryloyl-4-methoxypyrrolidin-2-yl)methoxy)-6-aminopyrimidin-4-yl)-5-fluoro-2-methylphenyl)-4-cyclopropyl-2-fluorobenzamide] | 134
CC#CC(=O)N1C[C@@H](OC)C[C@H]1COc1c(N)ncnc1-c1cc(F)cc(NC(=O)c2ccc(C3CC3)cc2F)c1C [Example 30, N-(3-(6-Amino-5-(((2S,4S)-1-(but-2-ynoyl)-4-methoxypyrrolidin-2-yl)methoxy)pyrimidin-4-yl)-5-fluoro-2-methylphenyl)-4-cyclopropyl-2-fluorobenzamide] | 222
C=CC(=O)N1C[C@H](F)C[C@H]1COc1c(N)ncnc1-c1cc(F)cc(NC(=O)c2ccc(C3CC3)cc2F)c1C [Example 31, N-(3-(5-(((2S,4R)-1-Acryloyl-4-fluoropyrrolidin-2-yl)methoxy)-6-aminopyrimidin-4-yl)-5-fluoro-2-methylphenyl)-4-cyclopropyl-2-fluorobenzamide] | 25
CC#CC(=O)N1C[C@H](F)C[C@H]1COc1c(N)ncnc1-c1cc(F)cc(NC(=O)c2ccc(C3CC3)cc2F)c1C [Example 32, N-(3-(6-Amino-5-(((2S,4R)-1-(but-2-ynoyl)-4-fluoropyrrolidin-2-yl)methoxy)pyrimidin-4-yl)-5-fluoro-2-methylphenyl)-4-cyclopropyl-2-fluorobenzamide] | 55
C#CC(=O)N1CC[C@H]1COc1c(N)ncnc1-c1cc(F)cc(NC(=O)c2ccc(C3CC3)cc2F)c1C [Example 34] | 208
C=CC(=O)N1CC[C@H]1COc1c(N)ncnc1-c1cc(F)cc(N2CCc3cc(C4CC4)ccc3C2=O)c1CO [Example 35, (S)-2-(3-(5-((1-Acryloylazetidin-2-yl)methoxy)-6-aminopyrimidin-4-yl)-5-fluoro-2-(hydroxymethyl)phenyl)-6-cyclopropyl-3,4-dihydroisoquinolin-1(2H)-one] | 72
C=CC(=O)N1CCC[C@@H](COc2c(N)ncnc2-c2cc(F)cc(NC(=O)c3ccc(C4CC4)cc3F)c2C)C1 [Example 37, (R)—N-(3-(5-((1-Acryloylpiperidin-3-yl)methoxy)-6-aminopyrimidin-4-yl)-5-fluoro-2-methylphenyl)-4-cyclopropyl-2-fluorobenzamide] | 968
C=CC(=O)N1CC[C@H](OC)[C@H]1COc1c(N)ncnc1-c1cc(F)cc(NC(=O)c2ccc(C3CC3)cc2F)c1C [Example 38, N-(3-(5-(((2R,3S)-1-Acryloyl-3-methoxypyrrolidin-2-yl)methoxy)-6-aminopyrimidin-4-yl)-5-fluoro-2-methylphenyl)-4-cyclopropyl-2-fluorobenzamide] | 70
C=CC(=O)N1C[C@H](C#N)C[C@H]1COc1c(N)ncnc1-c1cc(F)cc(NC(=O)c2ccc(C3CC3)cc2F)c1C [Example 39, N-(3-(5-(((2S,4R)-1-Acryloyl-4-cyanopyrrolidin-2-yl)methoxy)-6-aminopyrimidin-4-yl)-5-fluoro-2-methylphenyl)-4-cyclopropyl-2-fluorobenzamide] | 176
C=CC(=O)N1C[C@@H](C#N)C[C@H]1COc1c(N)ncnc1-c1cc(F)cc(NC(=O)c2ccc(C3CC3)cc2F)c1C [Example 40, N-(3-(5-(((2S,4S)-1-Acryloyl-4-cyanopyrrolidin-2-yl)methoxy)-6-aminopyrimidin-4-yl)-5-fluoro-2-methylphenyl)-4-cyclopropyl-2-fluorobenzamide] | 80
